# Measurements taken from PMC12169615, “Fluorescent 4‑Nitrobenzo-2-oxa-1,3-diazole-Coupled Bile Acids as Probe Substrates of Hepatic and Intestinal Bile Acid Transporters of the Solute Carrier Families SLC10 and SLCO” (Journal of Medicinal Chemistry, 2025).
# Where “and” joins values, the source holds several entries; their conditions need not be identical. Equal entries are not always repeated.
# Target: T1, human ASBT (Homo sapiens, UniProt Q12908)
# T1 sequence (Q12908 1-348): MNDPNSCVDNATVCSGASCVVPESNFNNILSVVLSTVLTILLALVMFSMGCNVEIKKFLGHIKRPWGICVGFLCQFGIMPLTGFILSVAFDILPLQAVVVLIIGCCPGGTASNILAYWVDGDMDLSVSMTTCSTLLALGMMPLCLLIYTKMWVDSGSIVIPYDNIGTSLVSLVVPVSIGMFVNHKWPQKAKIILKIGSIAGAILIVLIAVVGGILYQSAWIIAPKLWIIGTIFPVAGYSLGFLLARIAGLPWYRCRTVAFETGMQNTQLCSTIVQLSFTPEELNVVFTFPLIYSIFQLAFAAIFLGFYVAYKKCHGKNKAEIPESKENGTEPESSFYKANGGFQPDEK
# Experiment: Transport kinetics of conjugated 3-NBD-BA (concentration-dependent uptake)
# Assay type: cell-based
# Parameters: stably transfected with the full open reading frames of human NTCP, ASBT, SOAT, OATP1B1, and OATP1B3; expressed in transfected cells
# Conditions: ASBT-HEK293, 10 min, +Na+ vs -Na+; not considered biologically meaningful
# Method: (§1) In a first step, the time-dependent transport of all conjugated NBD-BA was analyzed. […] Based on these findings, an uptake phase of 10 min was selected as the most practical for subsequent kinetic transport measurements. […] In contrast, for ASBT, reliable carrier-specific concentration-dependent transport rates and K m values could only be determined for 3α-NBD-GCA (16d). The transport rates for 3β-NBD-TCA (14a), 3β-NBD-TCDCA (14b), 3β-NBD-GCA (16a), and 3α-NBD-TCA (14d) were at ≤ 2 across the entire concentration range and were therefore not considered biologically meaningful.
# (§2) 7 ASBT and mAsbt transport kinetics for conjugated 3-NBD-BA. Concentration-dependent uptake of the indicated NBD-coupled BA was analyzed in HEK293 cells stably expressing human ASBT or mouse mAsbt at increasing substrate concentrations. Control experiments were performed in the absence of sodium (-Na^+). Uptake was analyzed for 10 min at 37 °C with transport buffer containing the indicated 3-NBD-BA. Afterward, the transport medium was removed, and each cell monolayer was washed and processed for fluorescence detection. Specific uptake was calculated by subtracting the nonspecific uptake in the absence of sodium (-Na^+, open symbols) from the uptake in the presence of sodium (+Na^+, closed symbols) and is shown by dotted lines. Values represent means ± SD of quadruplicate determinations. Michaelis Menten K m values were calculated by nonlinear regression analysis based on the specific uptake data. For ASBT, reliable specific uptake data could only be determined for 3α-NBD-GCA (16d).
row,Structure (SMILES),Transport rates via ASBT across the entire concentration range
1,C[C@H](CCC(=O)NCCS(=O)(=O)[O-])[C@H]1CC[C@H]2[C@@H]3[C@H](O)C[C@@H]4C[C@@H](Nc5ccc([N+](=O)[O-])c6nonc56)CC[C@]4(C)[C@H]3C[C@H](O)[C@]12C.[Na+] [14a],≤ 2
2,C[C@H](CCC(=O)NCCS(=O)(=O)[O-])[C@H]1CC[C@H]2[C@@H]3[C@H](O)C[C@@H]4C[C@H](Nc5ccc([N+](=O)[O-])c6nonc56)CC[C@]4(C)[C@H]3C[C@H](O)[C@]12C.[Na+] [14d],≤ 2
3,C[C@H](CCC(=O)NCC(=O)O)[C@H]1CC[C@H]2[C@@H]3[C@H](O)C[C@@H]4C[C@@H](Nc5ccc([N+](=O)[O-])c6nonc56)CC[C@]4(C)[C@H]3C[C@H](O)[C@]12C [16a],≤ 2

# Same assay, conditions: ASBT-HEK293, 10 min uptake, 37 °C, specific (Na+-dependent) uptake
row,Structure (SMILES),K m ASBT [µM]
1,C[C@H](CCC(=O)NCC(=O)O)[C@H]1CC[C@H]2[C@@H]3[C@H](O)C[C@@H]4C[C@H](Nc5ccc([N+](=O)[O-])c6nonc56)CC[C@]4(C)[C@H]3C[C@H](O)[C@]12C [16d],14.5

# Target: T2, mouse mNtcp (Mus musculus, UniProt O08705)
# T2 construct: stably transfected with the full open reading frames of human NTCP, ASBT, SOAT, OATP1B1, and OATP1B3 as well as mouse mNtcp and mAsbt; expressed in transfected cells
# T2 sequence (O08705 1-362): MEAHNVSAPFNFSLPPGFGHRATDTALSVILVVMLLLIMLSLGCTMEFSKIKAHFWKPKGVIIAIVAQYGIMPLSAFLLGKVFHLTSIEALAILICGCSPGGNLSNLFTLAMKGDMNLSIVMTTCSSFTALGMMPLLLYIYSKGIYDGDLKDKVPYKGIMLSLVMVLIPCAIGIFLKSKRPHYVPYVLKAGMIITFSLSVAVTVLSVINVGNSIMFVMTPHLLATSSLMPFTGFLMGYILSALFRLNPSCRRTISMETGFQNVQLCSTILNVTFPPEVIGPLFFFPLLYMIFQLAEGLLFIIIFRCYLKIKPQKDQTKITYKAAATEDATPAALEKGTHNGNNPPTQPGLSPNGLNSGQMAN
# Experiment: as above
# Assay type: cell-based
# Conditions: mNtcp-HEK293, 10 min uptake, 37 °C, specific (Na+-dependent) uptake
# Method: as §1
# as §2, with “6 NTCP” for “7 ASBT”, “mNtcp” for “mAsbt”, “NTCP” for “ASBT”, “data.” for “data. For ASBT, reliable specific uptake data could only be determined for 3α-NBD-GCA (16d).”
row,Structure (SMILES),K m mNtcp [µM]
1,C[C@H](CCC(=O)NCCS(=O)(=O)[O-])[C@H]1CC[C@H]2[C@@H]3[C@H](O)C[C@@H]4C[C@@H](Nc5ccc([N+](=O)[O-])c6nonc56)CC[C@]4(C)[C@H]3C[C@H](O)[C@]12C.[Na+] [14a],20.6
2,C[C@H](CCC(=O)NCCS(=O)(=O)[O-])[C@H]1CC[C@H]2[C@@H]3[C@H](O)C[C@@H]4C[C@H](Nc5ccc([N+](=O)[O-])c6nonc56)CC[C@]4(C)[C@H]3C[C@H](O)[C@]12C.[Na+] [14d],9.5
3,C[C@H](CCC(=O)NCC(=O)O)[C@H]1CC[C@H]2[C@@H]3[C@H](O)C[C@@H]4C[C@H](Nc5ccc([N+](=O)[O-])c6nonc56)CC[C@]4(C)[C@H]3C[C@H](O)[C@]12C [16d],5.2
4,C[C@H](CCC(=O)NCC(=O)O)[C@H]1CC[C@H]2[C@@H]3[C@H](O)C[C@@H]4C[C@@H](Nc5ccc([N+](=O)[O-])c6nonc56)CC[C@]4(C)[C@H]3C[C@H](O)[C@]12C [16a],17.2

# Target: T3, human NTCP (Homo sapiens, UniProt Q14973)
# T3 construct: HEK293 cell lines stably transfected with the full open reading frames of human NTCP; expressed in transfected cells
# T3 sequence (Q14973 1-349): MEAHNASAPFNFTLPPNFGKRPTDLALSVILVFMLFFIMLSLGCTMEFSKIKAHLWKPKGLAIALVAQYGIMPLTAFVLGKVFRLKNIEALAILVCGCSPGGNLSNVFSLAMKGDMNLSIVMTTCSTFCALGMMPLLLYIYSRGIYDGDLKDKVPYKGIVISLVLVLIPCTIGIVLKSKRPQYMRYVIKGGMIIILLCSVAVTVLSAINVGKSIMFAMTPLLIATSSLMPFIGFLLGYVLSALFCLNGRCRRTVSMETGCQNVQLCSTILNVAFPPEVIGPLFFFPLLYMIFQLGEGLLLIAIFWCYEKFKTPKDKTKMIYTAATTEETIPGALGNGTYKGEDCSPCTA
# Experiment: as above
# Assay type: cell-based
# Conditions: NTCP-HEK293, 10 min uptake, 37 °C, specific (Na+-dependent) uptake
# Method: as §1
# as §2, with “6 NTCP” for “7 ASBT”, “mNtcp” for “mAsbt”, “NTCP” for “ASBT”, “data.” for “data. For ASBT, reliable specific uptake data could only be determined for 3α-NBD-GCA (16d).”
row,Structure (SMILES),K m NTCP
1,C[C@H](CCC(=O)NCCS(=O)(=O)[O-])[C@H]1CC[C@H]2[C@@H]3[C@H](O)C[C@@H]4C[C@@H](Nc5ccc([N+](=O)[O-])c6nonc56)CC[C@]4(C)[C@H]3C[C@H](O)[C@]12C.[Na+] [14a],29.5 µM
2,C[C@H](CCC(=O)NCCS(=O)(=O)[O-])[C@H]1CC[C@H]2[C@@H]3[C@H](O)C[C@@H]4C[C@H](Nc5ccc([N+](=O)[O-])c6nonc56)CC[C@]4(C)[C@H]3C[C@H](O)[C@]12C.[Na+] [14d],20.0 µM and 20 µM
3,C[C@H](CCC(=O)NCC(=O)O)[C@H]1CC[C@H]2[C@@H]3[C@H](O)C[C@@H]4C[C@H](Nc5ccc([N+](=O)[O-])c6nonc56)CC[C@]4(C)[C@H]3C[C@H](O)[C@]12C [16d],36.8 µM
4,C[C@H](CCC(=O)NCC(=O)O)[C@H]1CC[C@H]2[C@@H]3[C@H](O)C[C@@H]4C[C@@H](Nc5ccc([N+](=O)[O-])c6nonc56)CC[C@]4(C)[C@H]3C[C@H](O)[C@]12C [16a],43.1 µM
